Results published in patent US10294202B2, “Pyrrolidinones as herbicides” (FMC Corporation, priority 2013, dated 2019).

Experiments:
ducksalad = assay: Test B flooded paddy test; assay type: in vivo, Heteranthera limosa; settings: 500 g ai/ha, Flood; scale of 0 to 100 where 0 is no effect and 100 is complete control
Summary of the method: (§1)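 First, plants reach the 2-leaf stage; next, pots are flooded to 3 cm and compound is delivered into the water; finally, after 13 to 15 greenhouse days at constant depth, injury is graded visually from 0 to 100 against controls.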

corn = assay: Test A pre-/postemergence herbicide test; assay type: in vivo, Zea mays; settings: Postemergence
Summary of the method: (§2)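 Seeds sown in loam soil/sand blend received a preemergence directed soil spray of test chemical in non-phytotoxic solvent with surfactant; postemergence plants (2–10 cm, one- to two-leaf stage) were sprayed with the same formulation. After about 10 days in greenhouse, injury was rated visually versus untreated controls, 0 (no effect) to 100 (complete control).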

barnyardgrass [1] = assay: Test B flooded paddy test; assay type: in vivo, Echinochloa crus-galli; settings: 500 g ai/ha, Flood; scale of 0 to 100 where 0 is no effect and 100 is complete control
Summary of the method: as §1

ryegrass, Italian = assay: Test A pre-/postemergence herbicide test; assay type: in vivo, Lolium multiflorum
Summary of the method: as §2

sedge, umbrella = assay: Test B flooded paddy test; assay type: in vivo, Cyperus difformis; settings: 500 g ai/ha, Flood; scale of 0 to 100 where 0 is no effect and 100 is complete control
Summary of the method: as §1

giant foxtail = assay: Test A pre-/postemergence herbicide test; assay type: in vivo, Setaria faberii
Summary of the method: as §2

rice = assay: Test B flooded paddy test; assay type: in vivo, Oryza sativa; settings: 500 g ai/ha, Flood; scale of 0 to 100 where 0 is no effect and 100 is complete control
Summary of the method: as §1

kochia = assay: Test A pre-/postemergence herbicide test; assay type: in vivo, Kochia scoparia
Summary of the method: as §2

galium = assay: Test A postemergence herbicide test; assay type: in vivo, Galium aparine
Summary of the method: (§3)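 Visual injury rating, 0 (no effect) to 100 (complete control), versus untreated controls ~10 days after treatment. Postemergence spray applied at one- to two-leaf stage, plants 2–10 cm tall, potted in loam soil/sand. Greenhouse-held.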

pigweed = assay: Test A pre-/postemergence herbicide test; assay type: in vivo, Amaranthus retroflexus
Summary of the method: as §2

barnyardgrass [2] = assay: Test A pre-/postemergence herbicide test; assay type: in vivo, Echinochloa crus-galli
Summary of the method: as §2

wheat = assay: Test A pre-/postemergence herbicide test; assay type: in vivo, Triticum aestivum; settings: Postemergence
Summary of the method: as §2

blackgrass = assay: Test A postemergence herbicide test; assay type: in vivo, Alopecurus myosuroides
Summary of the method: as §3

ragweed = assay: Test A pre-/postemergence herbicide test; assay type: in vivo, Ambrosia elatior
Summary of the method: as §2

[3] = 125 g ai/ha, 0 to 100 scale, 0 is no effect, 100 is complete control
[4] = 125 g ai/ha, visual rating, 0 to 100 scale, 0 no effect, 100 complete control, approximately 10 days, preemergence
[5] = Postemergence, 125 g ai/ha, 0 to 100 scale, 0 is no effect, 100 is complete control
[6] = preemergence, 500 g ai/ha, 0 to 100 scale, 0 is no effect and 100 is complete control
[7] = 125 g ai/ha, visual rating on 0 to 100 scale (0 no effect, 100 complete control), approx. 10 days
[8] = 500 g ai/ha, 0 to 100 scale (0 no effect, 100 complete control)
[9] = Postemergence, 125 g ai/ha, visual rating on 0 to 100 scale (0 no effect, 100 complete control), approx. 10 days
[10] = Postemergence, 500 g ai/ha, 0 to 100 scale (0 no effect, 100 complete control)
[11] = Preemergence, 125 g ai/ha, 0 to 100 scale where 0 is no effect and 100 is complete control
[12] = Preemergence, 500 g ai/ha, visual rating on 0 to 100 scale (0 no effect, 100 complete control)

CCCN1CC(c2ccc(C(F)(F)F)cc2)C(C(=O)Nc2cccc(F)c2F)C1=O (stereo not drawn) [Compound 182]
Plant response rating, Ducksalad (ducksalad): 30
Plant response rating, Corn (corn; [3]): 0
Corn plant response rating (0 to 100 scale, 0 is no effect, 100 is complete control) (corn; 500 g ai/ha): 0
Plant response rating, Barnyardgrass (barnyardgrass [1]): 0
Plant response rating, Ryegrass, Italian (ryegrass, Italian; [4]): 0
Plant response rating, Ryegrass, Italian (ryegrass, Italian; [5]): 0
Ryegrass, Italian plant response rating (0 to 100 scale, 0 is no effect, 100 is complete control) (ryegrass, Italian; Postemergence, 500 g ai/ha): 0
Plant response rating, Ryegrass, Italian (ryegrass, Italian; [6]): 0
Plant response rating, Sedge, Umbrella (sedge, umbrella): 0
Plant response rating, Foxtail, Giant (giant foxtail; [4]): 50
Plant response rating, Foxtail, Giant (giant foxtail; [5]): 0
Foxtail, Giant plant response rating (0 to 100 scale, 0 is no effect, 100 is complete control) (giant foxtail; Postemergence, 500 g ai/ha): 10
Plant response rating, Foxtail, Giant (giant foxtail; [6]): 70
Plant response rating, Rice (rice): 0
Plant response rating, Kochia (kochia; [4]): 0
Plant response rating, Kochia (kochia; [5]): 0
Kochia plant response rating (0 to 100 scale, 0 is no effect, 100 is complete control) (kochia; Postemergence, 500 g ai/ha): 0
Plant response rating, Kochia (kochia; [6]): 0
Plant response rating, Galium (galium; [3]): 0
Galium plant response rating (0 to 100 scale, 0 is no effect, 100 is complete control) (galium; 500 g ai/ha): 0
Plant response rating, Pigweed (pigweed; [4]): 0
Plant response rating, Pigweed (pigweed; [5]): 0
Pigweed plant response rating (0 to 100 scale, 0 is no effect, 100 is complete control) (pigweed; Postemergence, 500 g ai/ha): 0
Plant response rating, Pigweed (pigweed; [6]): 0
Plant response rating, Barnyardgrass (barnyardgrass [2]; [4]): 0
Plant response rating, Barnyardgrass (barnyardgrass [2]; [5]): 0
Barnyardgrass plant response rating (0 to 100 scale, 0 is no effect, 100 is complete control) (barnyardgrass [2]; Postemergence, 500 g ai/ha): 0
Plant response rating, Barnyardgrass (barnyardgrass [2]; [6]): 0
Plant response rating, Wheat (wheat; [3]): 0
Wheat plant response rating (0 to 100 scale, 0 is no effect, 100 is complete control) (wheat; 500 g ai/ha): 0
Plant response rating, Blackgrass (blackgrass; [3]): 0
Blackgrass plant response rating (0 to 100 scale, 0 is no effect, 100 is complete control) (blackgrass; 500 g ai/ha): 0
Plant response rating, Ragweed (ragweed; [4]): 0
Plant response rating, Ragweed (ragweed; [5]): 0
Ragweed plant response rating (0 to 100 scale, 0 is no effect, 100 is complete control) (ragweed; Postemergence, 500 g ai/ha): 0
Plant response rating, Ragweed (ragweed; [6]): 0

CCN1CC(c2ccc(C(F)(F)F)cc2)C(C(=O)Nc2cccc(F)c2F)C1=O (stereo not drawn) [Compound 336]
Plant response rating, Ducksalad (ducksalad): 60
Plant response rating, Corn (corn; [7]): 0
Plant response rating, Corn (corn; [8]): 0
Plant response rating, Barnyardgrass (barnyardgrass [1]): 50
Plant response rating, Ryegrass, Italian (ryegrass, Italian; [9]): 0
Plant response rating, Ryegrass, Italian (ryegrass, Italian; [10]): 0
Plant response rating, Ryegrass, Italian (ryegrass, Italian; [11]): 0
Ryegrass, Italian plant response rating (ryegrass, Italian; [12]): 20
Plant response rating, Sedge, Umbrella (sedge, umbrella): 0
Plant response rating, Foxtail, Giant (giant foxtail; [9]): 70
Plant response rating, Foxtail, Giant (giant foxtail; [10]): 70
Plant response rating, Foxtail, Giant (giant foxtail; [11]): 80
Foxtail, Giant plant response rating (giant foxtail; [12]): 90
Plant response rating, Rice (rice): 0
Plant response rating, Kochia (kochia; [9]): 0
Plant response rating, Kochia (kochia; [10]): 0
Plant response rating, Kochia (kochia; [11]): 0
Kochia plant response rating (kochia; [12]): 60
Plant response rating, Galium (galium; [7]): 0
Plant response rating, Galium (galium; [8]): 0
Plant response rating, Pigweed (pigweed; [9]): 0
Plant response rating, Pigweed (pigweed; [10]): 0
Plant response rating, Pigweed (pigweed; [11]): 0
Pigweed plant response rating (pigweed; [12]): 20
Plant response rating, Barnyardgrass (barnyardgrass [2]; [9]): 30
Plant response rating, Barnyardgrass (barnyardgrass [2]; [10]): 60
Plant response rating, Barnyardgrass (barnyardgrass [2]; [11]): 50
Barnyardgrass plant response rating (barnyardgrass [2]; [12]): 60
Plant response rating, Wheat (wheat; [7]): 0
Plant response rating, Wheat (wheat; [8]): 0
Plant response rating, Blackgrass (blackgrass; [7]): 0
Plant response rating, Blackgrass (blackgrass; [8]): 0
Plant response rating, Ragweed (ragweed; [9]): 0
Plant response rating, Ragweed (ragweed; [10]): 0
Plant response rating, Ragweed (ragweed; [11]): 0
Ragweed plant response rating (ragweed; [12]): 0
